Measurements: PMC10820264, “Combining Experimental and Computational Methods to Produce Conjugates of Anticholinesterase and Antioxidant Pharmacophores with Linker Chemistries Affecting Biological Activities Related to Treatment of Alzheimer’s Disease” (Molecules, 2024)
Read-outs that look alike come from different tables or passages of the source. Marks after values point to notes of the source that are not given here.

Tests used:
Porcine liver CES = test system: Porcine liver CES; design: method as in PMID 33322783; conditions: cited from earlier work
[1] = design: method as in PMID 33322783; conditions: Trolox equivalents; cited from earlier work
[2] = design: method as in PMID 33322783; conditions: Trolox equivalents; cited from earlier work; remark: listed apart in the source
[3] = ABTS radical cation scavenging assay
equine serum BChE = equine serum BChE (Equus caballus, UniProt P81908); design: method as in PMID 33322783; conditions: cited from earlier work
[4] = target: peripheral anionic site of Electrophorus electricus AChE (EeAChE) (Electrophorus electricus, UniProt O42275); design: method as in PMID 33322783; conditions: compound 20 μM; cited from earlier work
Human erythrocyte AChE = Human erythrocyte AChE (Homo sapiens, UniProt P22303); design: method as in PMID 33322783; conditions: cited from earlier work
eqBChE = eqBChE (Equus caballus, UniProt P81908); design: method as in PMID 33322783; conditions: cited from earlier work
AChE = AChE (Homo sapiens, UniProt P22303); design: method as in PMID 33322783; conditions: cited from earlier work
[5] = Ferric-reducing antioxidant power (FRAP) assay; conditions: Trolox equivalents

equine serum BChE, sequence (P81908 whole entry): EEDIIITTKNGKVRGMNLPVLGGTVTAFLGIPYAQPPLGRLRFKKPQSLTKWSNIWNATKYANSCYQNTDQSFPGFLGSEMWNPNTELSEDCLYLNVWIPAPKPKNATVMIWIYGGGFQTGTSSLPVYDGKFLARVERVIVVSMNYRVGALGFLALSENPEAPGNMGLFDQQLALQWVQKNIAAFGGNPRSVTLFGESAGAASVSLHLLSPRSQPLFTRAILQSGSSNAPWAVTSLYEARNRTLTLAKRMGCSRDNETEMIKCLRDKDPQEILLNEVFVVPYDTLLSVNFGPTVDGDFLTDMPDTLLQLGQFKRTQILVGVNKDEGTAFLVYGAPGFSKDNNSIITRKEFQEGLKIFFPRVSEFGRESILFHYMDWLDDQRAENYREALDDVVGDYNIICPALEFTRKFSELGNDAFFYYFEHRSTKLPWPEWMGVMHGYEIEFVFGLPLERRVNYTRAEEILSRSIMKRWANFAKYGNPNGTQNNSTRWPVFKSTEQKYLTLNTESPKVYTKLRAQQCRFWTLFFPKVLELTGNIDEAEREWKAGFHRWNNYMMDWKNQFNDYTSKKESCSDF
peripheral anionic site of Electrophorus electricus AChE (EeAChE), sequence (O42275 24-633): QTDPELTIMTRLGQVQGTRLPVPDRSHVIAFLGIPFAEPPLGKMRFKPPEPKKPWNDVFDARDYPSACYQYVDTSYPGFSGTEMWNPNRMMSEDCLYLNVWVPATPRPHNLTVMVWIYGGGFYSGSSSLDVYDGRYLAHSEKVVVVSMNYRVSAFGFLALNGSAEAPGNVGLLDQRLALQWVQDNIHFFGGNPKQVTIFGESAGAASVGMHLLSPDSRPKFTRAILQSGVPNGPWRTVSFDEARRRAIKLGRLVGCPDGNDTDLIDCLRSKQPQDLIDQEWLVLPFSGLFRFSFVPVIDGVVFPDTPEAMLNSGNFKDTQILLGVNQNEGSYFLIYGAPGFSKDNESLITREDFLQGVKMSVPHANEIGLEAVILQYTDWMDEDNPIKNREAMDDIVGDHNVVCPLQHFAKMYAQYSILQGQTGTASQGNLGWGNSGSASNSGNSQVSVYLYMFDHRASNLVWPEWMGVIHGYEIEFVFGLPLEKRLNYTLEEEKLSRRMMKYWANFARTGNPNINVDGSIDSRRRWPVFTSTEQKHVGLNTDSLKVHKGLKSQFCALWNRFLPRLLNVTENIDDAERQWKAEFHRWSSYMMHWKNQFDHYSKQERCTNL
Human erythrocyte AChE, sequence (P22303 other isoform, or with tags, fused parts or gaps): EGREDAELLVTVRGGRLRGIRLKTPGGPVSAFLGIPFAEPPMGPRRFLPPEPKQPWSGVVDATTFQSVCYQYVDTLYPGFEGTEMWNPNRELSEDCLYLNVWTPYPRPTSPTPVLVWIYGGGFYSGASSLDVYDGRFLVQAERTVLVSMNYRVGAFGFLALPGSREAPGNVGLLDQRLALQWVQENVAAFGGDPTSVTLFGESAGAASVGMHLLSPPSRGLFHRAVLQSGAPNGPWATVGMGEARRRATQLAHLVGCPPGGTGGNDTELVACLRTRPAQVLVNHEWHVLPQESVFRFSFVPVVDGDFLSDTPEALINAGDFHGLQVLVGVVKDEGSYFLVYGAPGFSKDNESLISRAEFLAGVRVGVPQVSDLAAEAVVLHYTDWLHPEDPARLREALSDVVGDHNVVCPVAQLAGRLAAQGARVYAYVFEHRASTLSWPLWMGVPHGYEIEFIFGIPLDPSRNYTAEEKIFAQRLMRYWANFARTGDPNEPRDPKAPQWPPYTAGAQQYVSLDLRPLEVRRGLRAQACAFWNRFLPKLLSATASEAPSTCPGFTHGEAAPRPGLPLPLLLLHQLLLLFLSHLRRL
eqBChE, sequence (P81908 whole entry): as the sequence (P81908 whole entry) above
AChE, sequence (P22303 other isoform, or with tags, fused parts or gaps): as the sequence (P22303 other isoform, or with tags, fused parts or gaps) above

Row | SMILES | CES % inhibition at 20 μM (Porcine liver CES) | Ferric-Reducing Antioxidant Power TE [1] | ABTS•+-Scavenging Activity TEAC [2] | IC50 [3] [µM] | IC50 (equine serum BChE) [µM] | Propidium Displacement [4] | IC50 (Human erythrocyte AChE) [µM] | eqBChE αKi (non-competitive inhibition constant) (eqBChE) | Ki (eqBChE; read-out: eqBChE Ki (competitive inhibition constant)) [µM] | AChE αKi (non-competitive inhibition constant) (AChE) | Ki (AChE; read-out: AChE Ki (competitive inhibition constant)) [µM] | Ferric-Reducing Antioxidant Power TE [5]
1 | CC(C)(C)c1cc(/C=N/CCNc2c3c(nc4ccccc24)CCCC3)cc(C(C)(C)C)c1O [14a] | 28.6 ± 1.6% ^a,*** | 0.58 ± 0.03 ^a,*** | 1.13 ± 0.05 ^a | 17.8 ± 1.5 | 1.61 ± 0.04 | 18.2 ± 1.6 ^a,*^,§ % | 5.98 ± 0.131 | – | – | – | – | –
2 | CC(C)(C)c1cc(/C=N/CCNc2c3c(nc4ccccc24)CCCCC3)cc(C(C)(C)C)c1O [15a] | 30.1 ± 2.5% ^a,*** | 0.52 ± 0.01 ^a,*** | 1.11 ± 0.04 ^a | 18.8 ± 0.8 | 0.419 ± 0.04 | 16.3 ± 1.3 ^a % | 4.03 ± 0.03 | 437 ± 10 ^b,*** nM | 0.164 ± 0.005 | 4300 ± 20 ^b,* nM | 1.58 ± 0.1 | –
3 | CC(C)(C)c1cc(/C=N/CCNc2c3c(nc4ccccc24)CCC3)cc(C(C)(C)C)c1O [13a] | 26.1 ± 0.7% ^a,*** | 0.51 ± 0.03 ^a,*** | 0.92 ± 0.03 ^a | 22.3 ± 1.5 | 1.92 ± 0.11 | 18.1 ± 1.6 ^a,*^,§ % | 4.86 ± 0.01 | – | – | – | – | –
4 | CC(C)(C)c1cc(CNCCNc2c3c(nc4ccccc24)CCCCC3)cc(C(C)(C)C)c1O [18a] | 26.0 ± 3.9% ^a,* | – | 1.35 ± 0.06 ^a,*** | 15.3 ± 0.6 | – | 13.6 ± 1.2 ^a % | – | – | – | – | – | 0.44 ± 0.06
5 | CC(C)(C)c1cc(CNCCNc2c3c(nc4ccccc24)CCC3)cc(C(C)(C)C)c1O [16a] | 19.6 ± 1.3% ^a,*** | – | 1.39 ± 0.05 ^a,*** | 14.6 ± 0.8 | – | 16.4 ± 1.4 ^a % | – | – | – | – | – | 0.57 ± 0.02
